Results as given in patent US20030194376A1, “Ultrasound contrast agents and methods of making and using them” (Bracco International B.V., priority 1990, published 2003).

Experiment: Water solubility of the filling gas (Bunsen coefficient, Gas Encyclopaedia)
Assay type: physicochemical
Conditions: gas solubility divided by square root of molecular weight
From the text: In the Tables, the water solubility factors have also been taken from the aforecited Gas Encyclopaedia from “L'Air Liquide”, Elsevier Publisher (1976).

| Structure (SMILES) | S gas {square root} Mw |
| --- | --- |
| [Kr] [Kr, Krypton] | .006 |
| FC(F)(F)F [CF4] | .0004 |
| FC(F)(F)Br [CBrF3] | .0004 |
